Results as given in ChEMBL document CHEMBL1201862, “PubChem BioAssay data set” (2004).
Calls of active or inactive are those of the source.

What was measured:
[1] = target: Induced myeloid leukemia cell differentiation protein Mcl-1 (Homo sapiens, UniProt Q07820); format: functional
[2] = target: T1, High affinity choline transporter 1 (Homo sapiens, UniProt Q9GZV3); assay: human choline transporter blockers, potency – cell-based, 5-point CRC, membrane potential dye, dose response (AID 504840); format: functional
T1 sequence (Q9GZV3 whole entry): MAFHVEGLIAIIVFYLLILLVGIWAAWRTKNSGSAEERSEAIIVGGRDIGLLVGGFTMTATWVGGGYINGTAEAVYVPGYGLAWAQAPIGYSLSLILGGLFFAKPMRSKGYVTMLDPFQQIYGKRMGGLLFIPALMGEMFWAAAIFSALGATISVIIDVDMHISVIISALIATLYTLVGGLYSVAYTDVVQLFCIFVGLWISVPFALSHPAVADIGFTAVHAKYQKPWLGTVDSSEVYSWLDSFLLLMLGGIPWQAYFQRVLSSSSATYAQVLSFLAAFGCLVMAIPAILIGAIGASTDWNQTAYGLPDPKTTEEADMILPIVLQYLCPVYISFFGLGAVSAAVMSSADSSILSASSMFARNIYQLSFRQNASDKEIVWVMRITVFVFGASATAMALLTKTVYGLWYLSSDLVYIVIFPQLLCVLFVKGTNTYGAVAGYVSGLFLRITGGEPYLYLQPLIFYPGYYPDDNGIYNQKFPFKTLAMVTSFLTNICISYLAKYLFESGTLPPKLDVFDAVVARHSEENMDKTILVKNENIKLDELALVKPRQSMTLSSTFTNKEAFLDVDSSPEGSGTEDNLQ

[3] = target: T2, Calpain-2 catalytic subunit (Sus scrofa, UniProt P43367); assay: m-calpain protease blockers, concentration series – biochemical, fluorogenic peptide substrate, dose response (AID 1420); format: functional
T2 sequence (P43367 whole entry): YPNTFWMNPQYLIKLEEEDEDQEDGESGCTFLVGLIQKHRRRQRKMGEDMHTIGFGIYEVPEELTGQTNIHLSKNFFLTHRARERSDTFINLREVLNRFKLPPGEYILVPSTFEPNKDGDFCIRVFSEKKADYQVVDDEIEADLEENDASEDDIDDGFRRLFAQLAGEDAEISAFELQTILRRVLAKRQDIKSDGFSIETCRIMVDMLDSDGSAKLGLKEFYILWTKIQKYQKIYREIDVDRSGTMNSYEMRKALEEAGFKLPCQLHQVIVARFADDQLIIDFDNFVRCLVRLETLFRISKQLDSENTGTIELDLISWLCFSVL

Cytochrome P450 2C9 [4] = target: T3, Cytochrome P450 2C9 (Homo sapiens, UniProt P11712)
T3 sequence (P11712 whole entry): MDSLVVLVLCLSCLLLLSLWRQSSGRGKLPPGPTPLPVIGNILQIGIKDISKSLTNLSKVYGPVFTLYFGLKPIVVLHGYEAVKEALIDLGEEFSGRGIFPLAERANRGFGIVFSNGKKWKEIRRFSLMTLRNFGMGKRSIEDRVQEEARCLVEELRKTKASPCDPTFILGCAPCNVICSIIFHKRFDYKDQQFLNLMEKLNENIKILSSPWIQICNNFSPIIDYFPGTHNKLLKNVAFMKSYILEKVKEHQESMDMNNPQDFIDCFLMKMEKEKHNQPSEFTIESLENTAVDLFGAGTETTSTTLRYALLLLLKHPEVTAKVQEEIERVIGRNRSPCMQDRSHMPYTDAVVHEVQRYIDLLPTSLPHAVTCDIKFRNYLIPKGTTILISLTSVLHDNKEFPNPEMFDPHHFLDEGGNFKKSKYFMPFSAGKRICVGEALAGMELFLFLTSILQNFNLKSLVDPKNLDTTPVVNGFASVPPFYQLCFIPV

[5] = target: Eukaryotic translation initiation factor 4E (Mus musculus, UniProt P63073); assay: blockers of eIF4G binding by eIF4E – biochemical, TR-FRET, dose response (AID 855); format: functional;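 further: potency for disrupting eIF4E binding to eIF4GI seen as loss of FRET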
Sequence of Eukaryotic translation initiation factor 4E (P63073 whole entry): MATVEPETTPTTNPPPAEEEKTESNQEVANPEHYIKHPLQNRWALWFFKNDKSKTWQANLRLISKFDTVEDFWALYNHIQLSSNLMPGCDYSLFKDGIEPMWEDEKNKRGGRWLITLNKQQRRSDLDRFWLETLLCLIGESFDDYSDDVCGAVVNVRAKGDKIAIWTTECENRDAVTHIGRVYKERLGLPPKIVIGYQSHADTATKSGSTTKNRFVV

[6] = target: Voltage-dependent T-type calcium channel subunit alpha-1H (Homo sapiens, UniProt O95180); format: functional;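 further: channel activity triggered by adding a high calcium stimulation buffer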
Sequence of Voltage-dependent T-type calcium channel subunit alpha-1H (O95180 whole entry): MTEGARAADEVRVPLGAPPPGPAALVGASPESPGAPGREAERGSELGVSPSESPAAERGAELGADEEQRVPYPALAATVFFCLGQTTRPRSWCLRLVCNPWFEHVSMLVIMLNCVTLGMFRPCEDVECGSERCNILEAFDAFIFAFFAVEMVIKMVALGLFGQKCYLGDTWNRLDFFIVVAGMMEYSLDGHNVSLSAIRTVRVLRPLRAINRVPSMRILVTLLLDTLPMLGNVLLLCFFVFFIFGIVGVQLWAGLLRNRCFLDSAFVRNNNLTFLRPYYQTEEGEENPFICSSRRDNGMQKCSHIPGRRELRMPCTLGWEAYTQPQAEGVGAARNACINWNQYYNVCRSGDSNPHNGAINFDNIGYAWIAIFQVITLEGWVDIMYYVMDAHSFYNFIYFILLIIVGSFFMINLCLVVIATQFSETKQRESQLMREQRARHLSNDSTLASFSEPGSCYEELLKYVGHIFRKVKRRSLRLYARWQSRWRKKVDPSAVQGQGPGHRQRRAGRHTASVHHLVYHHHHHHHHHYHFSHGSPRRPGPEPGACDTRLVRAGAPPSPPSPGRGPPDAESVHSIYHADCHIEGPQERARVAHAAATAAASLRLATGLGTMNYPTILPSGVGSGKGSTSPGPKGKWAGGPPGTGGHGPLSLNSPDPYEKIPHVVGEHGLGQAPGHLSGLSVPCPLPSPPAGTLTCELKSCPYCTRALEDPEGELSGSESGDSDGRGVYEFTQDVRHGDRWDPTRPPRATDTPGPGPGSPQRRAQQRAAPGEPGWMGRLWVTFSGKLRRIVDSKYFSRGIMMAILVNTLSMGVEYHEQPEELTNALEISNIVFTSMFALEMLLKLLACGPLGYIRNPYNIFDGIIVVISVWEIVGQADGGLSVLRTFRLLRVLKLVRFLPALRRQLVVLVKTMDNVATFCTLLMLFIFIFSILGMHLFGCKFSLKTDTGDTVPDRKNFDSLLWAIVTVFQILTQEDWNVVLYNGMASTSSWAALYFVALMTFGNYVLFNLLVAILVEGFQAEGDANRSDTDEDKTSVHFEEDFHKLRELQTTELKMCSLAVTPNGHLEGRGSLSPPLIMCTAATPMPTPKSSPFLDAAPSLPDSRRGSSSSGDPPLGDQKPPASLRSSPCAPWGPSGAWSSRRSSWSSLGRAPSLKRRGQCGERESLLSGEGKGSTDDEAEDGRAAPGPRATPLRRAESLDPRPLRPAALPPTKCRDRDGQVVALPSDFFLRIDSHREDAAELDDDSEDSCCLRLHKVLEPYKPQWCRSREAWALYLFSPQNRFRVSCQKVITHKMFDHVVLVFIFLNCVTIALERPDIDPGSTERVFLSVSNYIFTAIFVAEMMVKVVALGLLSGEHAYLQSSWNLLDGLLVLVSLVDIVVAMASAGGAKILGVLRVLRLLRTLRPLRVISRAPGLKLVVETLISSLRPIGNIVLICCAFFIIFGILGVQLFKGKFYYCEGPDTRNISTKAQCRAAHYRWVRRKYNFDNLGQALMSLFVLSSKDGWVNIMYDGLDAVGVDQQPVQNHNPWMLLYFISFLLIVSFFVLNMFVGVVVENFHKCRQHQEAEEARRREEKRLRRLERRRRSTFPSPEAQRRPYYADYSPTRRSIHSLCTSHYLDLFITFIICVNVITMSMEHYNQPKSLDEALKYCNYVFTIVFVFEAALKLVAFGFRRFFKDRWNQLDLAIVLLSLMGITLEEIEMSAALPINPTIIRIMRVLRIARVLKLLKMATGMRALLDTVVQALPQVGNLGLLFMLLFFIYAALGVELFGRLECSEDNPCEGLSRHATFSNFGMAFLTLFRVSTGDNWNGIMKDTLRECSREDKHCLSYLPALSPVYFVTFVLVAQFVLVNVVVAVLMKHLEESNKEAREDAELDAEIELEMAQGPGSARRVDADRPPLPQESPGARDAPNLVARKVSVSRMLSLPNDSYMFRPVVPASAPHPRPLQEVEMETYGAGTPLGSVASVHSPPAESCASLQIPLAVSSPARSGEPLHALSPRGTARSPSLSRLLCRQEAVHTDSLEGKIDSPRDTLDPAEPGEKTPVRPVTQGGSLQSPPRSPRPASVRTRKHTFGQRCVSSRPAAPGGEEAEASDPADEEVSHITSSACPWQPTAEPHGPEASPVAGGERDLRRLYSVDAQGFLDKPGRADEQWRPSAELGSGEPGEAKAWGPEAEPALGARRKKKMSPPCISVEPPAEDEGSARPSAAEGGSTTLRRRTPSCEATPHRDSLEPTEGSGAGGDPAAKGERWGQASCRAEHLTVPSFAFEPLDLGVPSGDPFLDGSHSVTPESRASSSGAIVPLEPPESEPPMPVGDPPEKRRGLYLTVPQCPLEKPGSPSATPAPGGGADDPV

Streptokinase A = target: T4, Streptokinase A (Streptococcus pyogenes serotype M1, UniProt P10520); assay: viability-normalized secreted streptokinase activity reduction – plasminogen activation absorbance, OD405, dose response (AID 1914); format: functional, Streptococcus pyogenes M1 GAS;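 further: secreted streptokinase activity via plasminogen activation per viability signal from cell pellet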
T4 sequence (P10520 whole entry): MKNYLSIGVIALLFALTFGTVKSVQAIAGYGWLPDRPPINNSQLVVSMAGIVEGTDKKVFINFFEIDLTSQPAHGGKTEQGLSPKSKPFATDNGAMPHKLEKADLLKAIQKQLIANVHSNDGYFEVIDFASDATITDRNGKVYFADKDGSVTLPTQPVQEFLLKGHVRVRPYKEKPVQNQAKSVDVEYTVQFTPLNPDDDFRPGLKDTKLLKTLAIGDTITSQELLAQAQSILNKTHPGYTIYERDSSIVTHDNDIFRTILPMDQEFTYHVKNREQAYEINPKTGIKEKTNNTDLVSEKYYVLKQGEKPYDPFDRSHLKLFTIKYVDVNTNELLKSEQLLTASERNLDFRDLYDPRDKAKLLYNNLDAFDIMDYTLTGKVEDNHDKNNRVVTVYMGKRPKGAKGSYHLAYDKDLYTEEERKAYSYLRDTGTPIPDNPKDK

[7] = test system: Streptococcus sp. 'group A'; assay: Streptococcus pyogenes SK(-)GAS viability under kanamycin – luminescence, BacTiterGlo, confirmation, counter-screen for streptokinase expression inhibitor project, dose response (AID 1900); format: functional, organism-based
Streptococcus = assay: GAS UMAA2166 growth inhibition – luminescence, BacTiterGlo, counter-screen for streptokinase expression inhibitor project, dose response (AID 1915); format: functional, organism-based;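 further: potency for reduction of bacterial viability or growth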
[8] = NIH-3T3 fibroblast cytotoxicity, dose response, cytotoxicity control, cell-based, fluorescence, Alamar Blue, secondary assay (AID 2327); format: functional;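 further: NIH-3T3 mouse fibroblasts cultured with fluconazole at 8 µg/mL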
[9] = Trypanosoma cruzi growth suppression in host cells – NIH3T3 host cells, beta-gal luminescence, confirmation (AID 2044); format: functional, cell-based;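 further: intracellular parasites grown in NIH/3T3 mouse fibroblasts as host cells; luminescent beta-galactosidase reporter signal from transgenic T. cruzi replicating inside host cells; inhibitors lower the luminescence signal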
[10] = NIH3T3 cell viability loss – ATP luminescence, mouse fibroblasts, counter-screen, dose response (AID 2010); format: functional, cell-based;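 further: cells exposed to compound for about 90 hours before reading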
[11] = target: T5, Heat shock factor protein 1 (Mus musculus, UniProt P38532); assay: decrease of HSF1-responsive luciferase luminescence – cell-based, NIH3T3, dose retest, confirmation (AID 2382); format: functional;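 further: NIH3T3 fibroblasts with HSF1-driven luciferase reporter stressed by proteasome inhibitor MG132; luminescence from HSF1-driven luciferase expression after 8 hours of MG132 stress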
T5 sequence (P38532 whole entry): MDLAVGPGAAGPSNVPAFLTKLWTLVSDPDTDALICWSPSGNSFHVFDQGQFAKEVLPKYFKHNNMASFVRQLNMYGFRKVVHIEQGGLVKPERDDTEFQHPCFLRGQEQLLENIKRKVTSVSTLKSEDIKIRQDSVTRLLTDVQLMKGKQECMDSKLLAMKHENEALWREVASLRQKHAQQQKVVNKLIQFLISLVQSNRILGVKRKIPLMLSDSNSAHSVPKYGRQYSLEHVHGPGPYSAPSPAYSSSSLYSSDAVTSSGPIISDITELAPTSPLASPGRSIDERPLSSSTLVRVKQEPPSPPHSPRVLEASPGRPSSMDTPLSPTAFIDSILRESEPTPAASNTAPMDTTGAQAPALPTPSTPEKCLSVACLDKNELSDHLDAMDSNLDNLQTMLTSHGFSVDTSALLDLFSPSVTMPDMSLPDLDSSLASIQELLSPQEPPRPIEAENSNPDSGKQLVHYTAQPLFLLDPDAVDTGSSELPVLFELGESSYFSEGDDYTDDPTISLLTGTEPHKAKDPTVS

Cytochrome P450 2C9 [12] = target: T3, Cytochrome P450 2C9; remark: listed apart in the source
Cytochrome P450 3A4 = Cytochrome P450 3A4 (Homo sapiens, UniProt P08684);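 further: CYP3A4 tested as one member of a cytochrome P450 panel screen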
Sequence of Cytochrome P450 3A4 (P08684 whole entry): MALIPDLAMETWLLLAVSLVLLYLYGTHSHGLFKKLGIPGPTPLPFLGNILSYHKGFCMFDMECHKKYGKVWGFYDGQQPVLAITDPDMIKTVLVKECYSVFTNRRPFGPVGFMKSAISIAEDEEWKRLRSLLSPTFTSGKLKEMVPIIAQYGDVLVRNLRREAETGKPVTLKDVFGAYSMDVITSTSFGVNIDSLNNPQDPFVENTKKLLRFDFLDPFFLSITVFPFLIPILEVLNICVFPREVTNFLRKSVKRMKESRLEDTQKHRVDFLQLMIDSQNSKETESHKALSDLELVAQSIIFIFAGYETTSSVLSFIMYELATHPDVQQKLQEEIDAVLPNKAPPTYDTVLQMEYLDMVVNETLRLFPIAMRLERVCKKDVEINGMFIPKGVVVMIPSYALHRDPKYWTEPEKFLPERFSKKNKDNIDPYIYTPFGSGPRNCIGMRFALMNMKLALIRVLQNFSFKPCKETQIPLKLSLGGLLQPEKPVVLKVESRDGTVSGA

Sequence of Induced myeloid leukemia cell differentiation protein Mcl-1 (Q07820 whole entry): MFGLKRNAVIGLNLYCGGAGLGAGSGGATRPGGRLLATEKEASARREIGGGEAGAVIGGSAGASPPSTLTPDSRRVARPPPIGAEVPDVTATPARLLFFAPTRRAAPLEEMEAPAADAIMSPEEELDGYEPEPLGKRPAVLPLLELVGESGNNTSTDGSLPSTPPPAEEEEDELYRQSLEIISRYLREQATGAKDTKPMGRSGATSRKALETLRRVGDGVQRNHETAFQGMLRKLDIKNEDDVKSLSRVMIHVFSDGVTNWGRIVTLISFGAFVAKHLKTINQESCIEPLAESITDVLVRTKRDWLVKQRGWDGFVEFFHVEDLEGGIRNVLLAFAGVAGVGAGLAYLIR

Cc1cc(C(=O)OCC(=O)Nc2sc3c(c2C#N)CCC(C)C3)c2ccccc2n1 (configuration not stated)
IC50 [1]: 5.16 µM (active)

c1ccc(CCc2nn3c(Cc4ccccc4)nnc3s2)cc1
IC50 [2]: 27.5 µM (active)

Cc1ccc(N(CC(=O)NC2CCCC2)C(=O)c2ccc(C)s2)cc1
IC50 [3]: > 50 µM (not active)

COc1ccccc1CCC(=O)OCC(=O)c1c(N)n(CC(C)C)c(=O)n(C)c1=O
IC50 [2]: 14.8 µM (active)

COc1ccc([N+](=O)[O-])cc1NC(=O)CC(C)c1ccccc1 (configuration not stated)
AC50 (Cytochrome P450 2C9 [4]): inconclusive

CC(C)CC(c1nnnn1C1CCCC1)N1CCC(C(N)=O)CC1 (configuration not stated)
IC50 [3]: > 50 µM (not active)

COc1ccccc1NC(=O)C1CCCN(c2ncnc3c2nc2n3CCCCC2)C1 (configuration not stated)
IC50 [2]: 15.1 µM (active)

COc1ccc(OC)c(Nc2ncnc3sc(-c4ccccc4)cc23)c1
IC50 [5]: > 64 µM (inactive)

Cn1c(N)c(C(=O)COC(=O)C2CCCCC2)c(=O)n(C)c1=O
IC50 [3]: 6.73 µM (active)

O=C(CN1C(=O)S/C(=C\c2ccc(Cl)cc2)C1=O)NNC(=O)c1ccccc1O
IC50 [5]: > 64 µM (inactive)

COc1ccccc1CNc1cc(-c2ccccc2OC)ncn1
AC50 (Cytochrome P450 2C9 [4]): inconclusive

CC(=O)OCc1c(C(F)(F)F)nn(C)c1Oc1cccc(C(F)(F)F)c1
EC50 [6]: 8.45 µM (active)

CC1CCCCC1NC(=O)CCn1ccc2cc(S(=O)(=O)N3CCCC3)ccc21 (configuration not stated)
EC50 (Streptokinase A): > 150 µM (not active) | IC50 [2]: 17 µM (active) | EC50 [7]: > 150 µM (not active) | EC50 (Streptococcus): > 150 µM (not active)

O=C(C1CCN(S(=O)(=O)c2cccc3nsnc23)CC1)N1CCN(c2ccccc2F)CC1
AC50 (Cytochrome P450 2C9 [4]): inconclusive

Cc1ccc(C(=O)NCc2ccco2)cc1S(=O)(=O)Nc1cccc(Cl)c1
EC50 [8]: > 150 µM (inactive) | EC50 [6]: 5.11 µM (active)

O=C(O)c1cc(N/N=C/c2ccc(N3CCOCC3)s2)ccc1Cl
IC50 [1]: 3.84 µM (active)

CCc1ccc(Nc2c([N+](=O)[O-])nn(-c3ccc4c(c3)OCCO4)[n+]2[O-])cc1
EC50 [9]: 0.447 µM (active) | EC50 [10]: > 60 µM (not active) | IC50 [2]: 12.6 µM (active)

CCCC(=O)NCc1ccccc1Cl
IC50 [3]: 36.3 µM (not active)

Nc1ccccc1-c1nnc(SCc2ccccc2F)nc1O
IC50 [5]: > 64 µM (inactive)

CCOc1ccc(NC(=O)CN(c2cccc(C(F)(F)F)c2)S(C)(=O)=O)cc1
EC50 [6]: 9.24 µM (active)

O=C(c1ccccc1)N1CC(COc2ccccc2)OC(c2ccco2)O1 (configuration not stated)
EC50 [6]: 12.4 µM (active)

COc1ccc2nc(NC(=O)Nc3cccc4ccccc34)sc2c1
IC50 [1]: 5.86 µM (not active)

CC(C)CC(=O)Nc1nnc(SCC(=O)Nc2ccc(F)cc2)s1
IC50 [3]: > 50 µM (not active)

CC(C)C(NC(=O)C12CC3CC(CC(C3)C1)C2)C(=O)NC1=NCCS1 (configuration not stated)
EC50 [11]: > 195 µM (not active) | AC50 (Cytochrome P450 2C9 [12]): 25.1 µM (inconclusive) | IC50 [5]: > 64 µM (inactive)

Cc1ccc(C2=NNC(=O)C(c3c[nH]c4ccccc34)C2)cc1 (configuration not stated)
IC50 [3]: 46.4 µM (not active)

Cc1cc(C)cc(NC(=O)CSc2nnc(Cc3cccn3C)n2-c2ccc(F)cc2)c1
EC50 [6]: 2.01 µM (active)

CC1CCN(C(=O)C2CCN(CCCc3ccccc3)CC2)CC1
EC50 [6]: 7.69 µM (active)

CCCn1c2ccccc2c2cnn(CC(=O)NCCCN3CCCCC3)c(=O)c21
IC50 [2]: 12.6 µM (active)

O=C(Nc1ccc2c(c1)OCO2)N1CCN(c2ncc(C(F)(F)F)cc2Cl)CC1
EC50 [6]: 1.99 µM (active)

O=C(Cn1c(=O)n(-c2ccccc2)c(=O)c2sccc21)N1CCCC1
IC50 [1]: 11.6 µM (not active)

FC(F)(F)c1cnc(/C=C/Nc2ccccc2Cl)c(Cl)c1
AC50 (Cytochrome P450 2C9 [4]): inconclusive | AC50 (Cytochrome P450 3A4): 31.6 µM (inconclusive)

CCNc1nc(NC(C)C)nc(Oc2ccc(=O)n(C)n2)n1
IC50 [5]: 50 µM (inactive)

CCC(=O)Nc1ccc(C(=O)N2CCN(C(=O)c3ccco3)CC2)cc1
IC50 [3]: 25.3 µM (not active)
